Experimental data taken from patent publication US20110105326A1, “Method for Enhancing the Rainfastness of Glyphosate” (BASF SE, priority 2008, published 2011).

Experiments:
Format in all cases: in vivo
[1] = system: Echinochloa colonum (ECHCO); assay: herbicidal action with/without simulated rainfall after treatment, Echinochloa colonum; details: 1500 g/ha diuron, 1080 g/ha glyphosate; for herbicidal action against Echinochloa colonum (ECHCO): control without simulated rainfall, Example 15.1
Protocol: (§1) The enhancement of the rainfastness of glyphosate was determined via the herbicidal activity of the mixture comprising glyphosate and the respective rainfastness enhancing herbicidal component B as well as of the single herbicidal components in relation to simulated rainfall at different time intervals.
(§2) The evaluation of the damage caused by the method and the compositions the according to the present invention and the single herbicidal components was carried out using a scale from 0 to 100%, compared to the untreated control plots. Here, 0 means no damage and 100 means complete destruction of the plants of a respective weed or crop species.
(§3) The application was performed with a fixed spayer system with air pressurization and with a tank spray volume of two liters. The speed of the spray device over the plants was adjusted for a spray volume of 200 I/ha. The spray device was a spray barr with four nozzles from the type Teejet XR 11002VS with a space of 50 cm between each nozzle.
(§4) The application was performed at a weed stage of 6 to 8 leaves. After the application of the formulated herbicides the leaves were washed through rain of 20 mm using a fixed rain simulator system at following time interval: 15 min, 30 min, 1, 2, 3, 4 and 6 hours after treatment.

[2] = system: Ipomoea grandifolia (IPOGR); assay: herbicidal action with/without simulated rainfall after treatment, Ipomoea grandifolia; details: 1500 g/ha diuron, 1080 g/ha glyphosate; for herbicidal action against Ipomoea grandifolia (IPOGR): control without simulated rainfall, Example 16.1
Protocol: as §1, §2, §3, §4

[3] = system: Brachiaria decumbens (BRADE); assay: herbicidal action with/without simulated rainfall after treatment, Brachiaria decumbens; details: 1500 g/ha diuron, 1080 g/ha glyphosate; for herbicidal action against Brachiaria decumbens (BRADE): control without simulated rainfall, Example 17.1
Protocol: as §1, §2, §3, §4

CN(C)C(=O)Nc1ccc(Cl)c(Cl)c1 [Diuron, diuron]
herbicidal action against Echinochloa colonum (ECHCO) ([1]; 1 DAA): 0
herbicidal action against Echinochloa colonum (ECHCO) ([1]; 2 DAA): 0
herbicidal action against Echinochloa colonum (ECHCO) ([1]; 3 DAA): 2.66
herbicidal action against Echinochloa colonum (ECHCO) ([1]; 7 DAA): 61
herbicidal action against ECHCO ([1]; simulated rainfall 30 min after treatment, 1 DAA, Example 15.2): 0
herbicidal action against ECHCO ([1]; simulated rainfall 30 min after treatment, 2 DAA, Example 15.2): 0
herbicidal action against ECHCO ([1]; simulated rainfall 30 min after treatment, 3 DAA, Example 15.2): 6
herbicidal action against ECHCO ([1]; simulated rainfall 30 min after treatment, 7 DAA, Example 15.2): 75.33
herbicidal action against ECHCO ([1]; simulated rainfall 2 hours after treatment, 1 DAA, Example 15.3): 0
herbicidal action against ECHCO ([1]; simulated rainfall 2 hours after treatment, 2 DAA, Example 15.3): 0
herbicidal action against ECHCO ([1]; simulated rainfall 2 hours after treatment, 3 DAA, Example 15.3): 1.66
herbicidal action against ECHCO ([1]; simulated rainfall 2 hours after treatment, 7 DAA, Example 15.3): 58.33
herbicidal action against Ipomoea grandifolia (IPOGR) ([2]; 1 DAA): 0
herbicidal action against Ipomoea grandifolia (IPOGR) ([2]; 2 DAA): 0
herbicidal action against Ipomoea grandifolia (IPOGR) ([2]; 3 DAA): 1.33
herbicidal action against Ipomoea grandifolia (IPOGR) ([2]; 7 DAA): 7.33
herbicidal action against IPOGR ([2]; simulated rainfall 15 min after treatment, 1 DAA, Example 16.2): 0
herbicidal action against IPOGR ([2]; simulated rainfall 15 min after treatment, 2 DAA, Example 16.2): 1
herbicidal action against IPOGR ([2]; simulated rainfall 15 min after treatment, 3 DAA, Example 16.2): 3.33
herbicidal action against IPOGR ([2]; simulated rainfall 15 min after treatment, 7 DAA, Example 16.2): 21
herbicidal action against IPOGR ([2]; simulated rainfall 30 min after treatment, 1 DAA, Example 16.3): 0
herbicidal action against IPOGR ([2]; simulated rainfall 30 min after treatment, 2 DAA, Example 16.3): 0
herbicidal action against IPOGR ([2]; simulated rainfall 30 min after treatment, 3 DAA, Example 16.3): 3
herbicidal action against IPOGR ([2]; simulated rainfall 30 min after treatment, 7 DAA, Example 16.3): 16.66
herbicidal action against IPOGR ([2]; simulated rainfall 2 hours after treatment, 1 DAA, Example 16.4): 0
herbicidal action against IPOGR ([2]; simulated rainfall 2 hours after treatment, 2 DAA, Example 16.4): 0
herbicidal action against IPOGR ([2]; simulated rainfall 2 hours after treatment, 3 DAA, Example 16.4): 0.33
herbicidal action against IPOGR ([2]; simulated rainfall 2 hours after treatment, 7 DAA, Example 16.4): 11.66
herbicidal action against IPOGR ([2]; simulated rainfall 6 hours after treatment, 1 DAA, Example 16.5): 0
herbicidal action against IPOGR ([2]; simulated rainfall 6 hours after treatment, 2 DAA, Example 16.5): 1
herbicidal action against IPOGR ([2]; simulated rainfall 6 hours after treatment, 3 DAA, Example 16.5): 2
herbicidal action against IPOGR ([2]; simulated rainfall 6 hours after treatment, 7 DAA, Example 16.5): 25.55
herbicidal action against Brachiaria decumbens (BRADE) ([3]; 1 DAA): 0
herbicidal action against Brachiaria decumbens (BRADE) ([3]; 2 DAA): 0
herbicidal action against Brachiaria decumbens (BRADE) ([3]; 3 DAA): 0
herbicidal action against Brachiaria decumbens (BRADE) ([3]; 7 DAA): 11
herbicidal action against Brachiaria decumbens (BRADE) ([3]; 14 DAA): 78.33
herbicidal action against BRADE ([3]; simulated rainfall 2 hours after treatment, 1 DAA, Example 17.2): 0
herbicidal action against BRADE ([3]; simulated rainfall 2 hours after treatment, 2 DAA, Example 17.2): 0
herbicidal action against BRADE ([3]; simulated rainfall 2 hours after treatment, 3 DAA, Example 17.2): 0
herbicidal action against BRADE ([3]; simulated rainfall 2 hours after treatment, 7 DAA, Example 17.2): 56
herbicidal action against BRADE ([3]; simulated rainfall 2 hours after treatment, 14 DAA, Example 17.2): 100
herbicidal action against BRADE ([3]; simulated rainfall 6 hours after treatment, 1 DAA, Example 17.3): 0
herbicidal action against BRADE ([3]; simulated rainfall 6 hours after treatment, 2 DAA, Example 17.3): 0
herbicidal action against BRADE ([3]; simulated rainfall 6 hours after treatment, 3 DAA, Example 17.3): 0
herbicidal action against BRADE ([3]; simulated rainfall 6 hours after treatment, 7 DAA, Example 17.3): 30
herbicidal action against BRADE ([3]; simulated rainfall 6 hours after treatment, 14 DAA, Example 17.3): 100
